This is an account of results in US20230031406A1, “COMPOUNDS AND COMPOSITIONS FOR TREATING CONDITIONS ASSOCIATED WITH NLRP ACTIVITY” (Novartis AG, priority 2018, published 2023).

Where two headings read alike, the source gives them in different places.

In the assay the test system is PMA-differentiated THP-1 cells. Description: IL-1β production in PMA-differentiated THP-1 cells stimulated with gramicidin (hTHP-1 assay containing 2% fetal bovine serum; Procedures 1 and 2). In kind it is cell-based, human. The following applies: 2% fetal bovine serum. Summed up:
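PMA 20 ng/ml 16-18 h → trypsinise → 50,000 cells/well, RPMI/2% FBS; cpd 1 h (11-pt, 100–0.0017 μM; DMSO 0.37%); gramicidin 5 μM, 2 h; spin; supernatant IL-1β via HTRF.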

Setting [1] is: Homo sapiens, THP-1, Table B2, numeric bounds, read-out: hTHP-1 IC50.
The mark [2] stands for this setting: Homo sapiens, THP-1, Table B3, hTHP-1 assay, class symbols, read-out: IC50.
[3] abbreviates: Homo sapiens, THP-1, Table B2, class symbols, read-out: hTHP-1 IC50.
[4] abbreviates: Table B3, hTHP-1 assay, class symbols, read-out: IC50.
Where [5] appears, read: Table B2, class symbols, read-out: hTHP-1 IC50.
Where [6] appears, read: Homo sapiens, THP-1, Table B1, numeric bounds, read-out: Average IC50 of compounds in hTHP-1 assay: hTHP-1 IC50.

By IC50 is commonly meant the concentration that inhibits the measured activity by half. Consider `C[C@@H]1CCc2c1nc1c(c2NC(=O)N=S(N)(=O)c2ccn(C)n2)CCC1` (single isomer, unassigned) [Compound 639a, (S) or (R)-1-Methyl-N′-(((R)-3-methyl-1,2,3,5,6,7-hexahydrodicyclopenta [b,e]pyridin-8-yl)carbamoyl)-1H-pyrazole-3-sulfonimidamide], for which, under setting [1], the IC50 is greater than 30 µM.
For `CO[C@H]1COc2c(S(N)(=O)=NC(=O)Nc3c(C)c(C(F)(F)F)nc4c3CCC4)cnn2C1` (stereo partly drawn) [Example 564, (6R)-6-methoxy-N′-((3-methyl-2-(trifluoromethyl)-6,7-dihydro-5H-cyclopenta[b]pyridin-4-yl)carbamoyl)-6,7-dihydro-5H-pymzolo[5,1-b][1,3]oxazine-3-sulfonimidamide], the IC50 under setting [2] lay in the range of 1 to 5 µM.
Take `COC(C)(C)c1ncc(S(N)(=O)=NC(=O)Nc2c3c(nc4c2CCC4)CCC3)s1` (centres unmarked) [Compound 693, N′-((1,2,3,5,6,7-hexahydrodicyclopenta[b,e]pyridin-8-yl)carbamoyl)-2-(2-methoxypropan-2-yl)thiazole-5-sulfonimidamide]: under setting [3], the IC50 lay within 1 to 5 µM.
Consider `CC(C)(O)c1ccc(S(N)(=O)=NC(=O)Nc2c3c(nc4c2CCC4(C)C)CCC3)cn1` (single isomer, unassigned) [Compound 673b, (S) or (R)-N′-((3,3-dimethyl-1,2,3,5,6,7-hexahydrodicyclopenta [b,e]pyridin-8-yl)carbamoyl)-6-(2-hydroxypropan-2-yl)pyridine-3-sulfonimidamide], for which the IC50 under setting [1] is greater than 30 µM.
On to `CCn1ccc(S(N)(=O)=NC(=O)Nc2c3c(nc(C4CC4)c2C2CC2)CCC3)n1` (single isomer, unassigned) [Example 700, (S) or (R)-N′-((2,3-dicyclopropyl-6,7-dihydro-5H-cyclopenta[b]pyridin-4-yl)carbamoyl)-1-ethyl-1H-pyrazole-3-sulfonimidamide], for which the 50% inhibitory concentration (IC50) under setting [4] is 5 to 30 µM.
Consider `CCn1ccc([S@](N)(=O)=NC(=O)Nc2c3c(nc(C4CC4)c2C2CC2)CCC3)n1` [Compound 726b], for which the IC50 under setting [3] lay in the range of 0.2 to 1 µM.
In the case of `CC(C)(O)c1cc(S(N)(=O)=NC(=O)Nc2c3c(nc4c2CCC4(C)C)CCC3)nn1-c1ccc(F)cc1` (single isomer, unassigned) [Compound 705a, (S) or (R)-N′-((3,3-dimethyl-1,2,3,5,6,7-hexahydrodicyclopenta [b,e]pyridin-8-yl)carbamoyl)-1-(4-fluorophenyl)-5-(2-hydroxypropan-2-yl)-1H-pyrazole-3-sulfonimidamide], the IC50 under setting [5] was in the range of 5 to 30 µM.
With `CC1(C)CCc2c1nc1c(c2NC(=O)N=S(N)(=O)c2ccn(-c3ccccc3)n2)CCC1` (single isomer, unassigned) [Compound 659b, (R) or (S)-N′-((3,3-dimethyl-1,2,3,5,6,7-hexahydrodicyclopenta [b,e]pyridin-8-yl)carbamoyl)-1-phenyl-1H-pyrazole-3-sulfonimidamide], under setting [5], the IC50 was 0.2 to 1 µM.
`Cc1c(C(F)(F)F)nc2c(c1NC(=O)N=[S@@](N)(=O)c1cnc(C(C)(C)O)s1)C(C)CC2` (stereo partly drawn) [Example 575, (R)-N′-((3,5-dimethyl-2-(trifluoromethyl)-6,7-dihydro-5H-cyclopenta[b]pyridin-4-yl)carbamoyl)-2-(2-hydroxypropan-2-yl)thiazole-5-sulfonimidamide]: the IC50 under setting [2] was 1 to 5 µM.
As for `CC(C)(O)c1ncc(S(N)(=O)=NC(=O)Nc2cc(C(F)F)nc3c2CCC3)s1` (centres unmarked) [Example 614, N′-((2-(difluoromethyl)-6,7-dihydro-5H-cyclopenta[b]pyridin-4-yl)carbamoyl)-2-(2-hydroxypropan-2-yl)thiazole-5-sulfonimidamide], the IC50 (Homo sapiens, THP-1, Table B3, hTHP-1 assay, numeric values, read-out: IC50) was greater than 30 µM.
In the case of `CC(C)n1nc(S(N)(=O)=NC(=O)Nc2c3c(nc4c2CC[C@H]4C)CCC3)cc1CO` (stereo partly drawn) [Example 596, 5-(Hydroxymethyl)-1-isopropyl-N-(((R)-3-methyl-1,2,3,5,6,7-hexahydrodicyclopenta[b,e]pyridin-8-yl)carbamoyl)-1H-pyrazole-3-sulfonimidamide], the half-inhibitory concentration (IC50) under setting [2] was in the range of 1 to 5 µM.
`NS(=O)(=NC(=O)Nc1c2c(nc(C(F)(F)F)c1C1CC1)CCC2)c1nn(C(F)F)cc1F` (centres unmarked) [Example 615, N′-((3-cyclopropyl-2-(trifluoromethyl)-6,7-dihydro-5H-cyclopenta[b]pyridin-4-yl)carbamoyl)-1-(difluoromethyl)-4-fluoro-1H-pyrazole-3-sulfonimidamide]: under setting [4], the IC50 fell in the range of 0.2 to 1 µM.
Consider `CC1(C)CCc2c1nc1c(c2NC(=O)N=S(N)(=O)c2cnc(C(C)(CO)CO)s2)CCC1` (centres unmarked) [Example 604, 2-(1,3-Dihydroxy-2-methylpropan-2-yl)-N′-((3,3-dimethyl-1,2,3,5,6,7-hexahydrodicyclopenta[b,e]pyridin-8-yl)carbamoyl)thiazole-5-sulfonimidamide], for which the IC50 under setting [2] was in the range of 0.04 to 0.2 µM.
Take `CC(C)c1nc(CO)c(S(N)(=O)=NC(=O)Nc2c3c(nc4c2CCC4(C)C)CCC3)s1` (centres unmarked) [Compound 680, N′-((3,3-dimethyl-1,2,3,5,6,7-hexahydrodicyclopenta[b,e]pyridin-8-yl)carbamoyl)-4-(hydroxymethyl)-2-isopropylthiazole-5-sulfonimidamide]: the IC50 under setting [3] lay within 1 to 5 µM.
Take `Cc1c(C2CCC2)nc2c(c1NC(=O)N=S(N)(=O)c1cnc(C(C)(C)O)s1)CCC2` (single isomer, unassigned) [Compound 649b, (S) or (R)-N′-((2-cyclobutyl-3-methyl-6,7-dihydro-5H-cyclopenta[b]pyridin-4-yl)carbamoyl)-2-(2-hydroxypropan-2-yl)thiazole-5-sulfonimidamide]: the IC50 under setting [1] is greater than 30 µM.
As to `Cc1c(C(F)(F)F)nc2c(c1NC(=O)N=[S@](N)(=O)c1cnc(C(C)(C)O)s1)CC[C@H]2C` [Compound 608b], the IC50 under setting [3] lay in the range of 5 to 30 µM.
In the case of `CC(C)n1ccc(S(N)(=O)=NC(=O)Nc2c3c(nc4c2CCC4)CCC3)n1` (single isomer, unassigned) [Compound 119b, (S) or (R)-N′-((1,2,3,5,6,7-hexahydrodicyclo-penta[b,e]pyridin-8-yl)carbamoyl)-1-isopropyl-1H-pyrazole-3-sulfonimidamide], under setting [6], the IC50 is greater than 30 µM.
As to `Cc1c(C2CC2)nc2c(c1NC(=O)N=S(N)(=O)c1ccn(C(F)F)n1)CCC2` (single isomer, unassigned) [Compound 676b, (R) or (S)-N′-((2-cyclopropyl-3-methyl-6,7-dihydro-5H-cyclopenta[b]pyridin-4-yl)carbamoyl)-1-(difluoromethyl)-1H-pyrazole-3-sulfonimidamide], the half-maximal inhibitory concentration (IC50) under setting [3] lay in the range of 1 to 5 µM.
`Cc1nc(C)c(C)c(NC(=O)N=S(N)(=O)c2cnc(C(C)(C)O)s2)c1C` (centres unmarked) [Compound 133, 2-(2-hydroxypropan-2-yl)-N′-((2,3,5,6,-tetramethylpyridin-4-yl)carbamoyl)thiazole-5-sulfonimidamide]: the half-inhibitory concentration (IC50) under setting [6] is greater than 14 µM.
Turning to `Cc1c(C(F)(F)F)nc2c(c1NC(=O)N=S(N)(=O)c1cnn(C(F)F)c1)CCC2` (single isomer, unassigned) [Compound 617b, (S) or (R)-1-(Difluoromethyl)-N′-((3-methyl-2-(trifluoromethyl)-6,7-dihydro-5H-cyclopenta[b]pyridin-4-yl)carbamoyl)-1H-pyrazole-4-sulfonimidamide], the IC50 under setting [1] was greater than 30 µM.
